Source: the supplement of paper PMC4862054

Legend:
Conditions in all cases: incubation time: 72 h
CAL-148 [1] = assay: normalised viability (% of control), CellTiter-Blue; higher = more viable cells (about 100 = DMSO control)
Description: (§1)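 DSRT, CellTiter-Blue viability, 72 h incubation. Signal is normalised to DMSO and benzethonium chloride controls. Value is the normalised response at dose 9.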

CAL-51 [2] = assay: as above
Description: as §1

CAL-85-1 = assay: as above
Description: as §1

DU-4475 [3] = assay: as above
Description: as §1

HDQ-P1 [4] = assay: as above
Description: as §1

MDA-MB-453 [5] = assay: as above
Description: as §1

CAL-120 [6] = assay: normalised response (% of control), CellTiter-Glo; higher = more viable cells (100 = DMSO, 0 = benzethonium chloride kill control)
How it was run: (§2)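 Each value is the plate-normalised signal at one concentration of the series. Breast cancer cell lines (20 µl suspension) were incubated 72 h in 384-well plates with compound at 5 concentrations in 10-fold steps over a compound-specific 10,000-fold range. CellTox Green and then CellTiter-Glo were read, and each plate was scaled to 0.1 % DMSO (100) and a positive kill control (0).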

DU-4475 [7] = assay: as above
How it was run: as §2

MDA-MB-231 [8] = assay: as above
How it was run: as §2

MDA-MB-453 [9] = assay: as above
How it was run: as §2

SK-BR-3 = assay: as above
How it was run: as §2

BT-474 = assay: drug sensitivity score (DSS), CellTox Green (DSS (AUC-based score)); higher = stronger drug effect (viability inhibition or cytotoxicity); extreme values may be limits of the assay
How it was run: (§3)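 Plates with 384 wells held compound at 5 concentrations in 10-fold steps over a 10,000-fold range specific to each compound. Breast cancer cell lines were added in 20 µl suspension and incubated 72 h, then read for CellTox Green and CellTiter-Glo signals, with each plate normalised to 0.1 % DMSO and a positive kill control. The drug sensitivity score is based on the area under the fitted dose-response curve.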

CAL-120 [10] = assay: as above
How it was run: as §3

CAL-148 [11] = assay: as above
How it was run: as §3

CAL-51 [12] = assay: as above
How it was run: as §3

DU-4475 [13] = assay: as above
How it was run: as §3

HCC1143 [14] = assay: as above
How it was run: as §3

HCC1599 = assay: as above
How it was run: as §3

HCC1937 = assay: as above
How it was run: as §3

HDQ-P1 [15] = assay: as above
How it was run: as §3

Hs578T = assay: as above
How it was run: as §3

MCF-10A = assay: as above
How it was run: as §3

MDA-MB-231 [16] = assay: as above
How it was run: as §3

MDA-MB-453 [17] = assay: as above
How it was run: as §3

HCC1143 [18] = assay: normalised response (% of control), CellTox Green; higher = less cell death (100 = DMSO, 0 = benzethonium chloride kill control)
How it was run: as §2

Row | Structure (SMILES) | normalised viability (CAL-148 [1]) [%] | normalised viability (CAL-51 [2]) [%] | normalised viability (CAL-85-1) [%] | normalised viability (DU-4475 [3]) [%] | normalised viability (HDQ-P1 [4]) [%] | normalised viability (MDA-MB-453 [5]) [%] | normalised response (CAL-120 [6]) [%] | normalised response (DU-4475 [7]) [%] | normalised response (MDA-MB-231 [8]) [%] | normalised response (MDA-MB-453 [9]) [%] | normalised response (SK-BR-3) [%] | drug sensitivity score (BT-474) | drug sensitivity score (CAL-120 [10]) | drug sensitivity score (CAL-148 [11]) | drug sensitivity score (CAL-51 [12]) | drug sensitivity score (DU-4475 [13]) | drug sensitivity score (HCC1143 [14]) | drug sensitivity score (HCC1599) | drug sensitivity score (HCC1937) | drug sensitivity score (HDQ-P1 [15]) | drug sensitivity score (Hs578T) | drug sensitivity score (MCF-10A) | drug sensitivity score (MDA-MB-231 [16]) | drug sensitivity score (MDA-MB-453 [17]) | normalised response (HCC1143 [18]) [%]
1 | CN(N=O)C(=O)N[C@@H](C=O)[C@@H](O)[C@H](O)[C@H](O)CO [Streptozocin] (10000 nM) | 105 | 101 | 91.1 | 92.6 | 122 | 99.1 | 109 | 96.1 | 98 | 95.6 | 108 |  |  |  |  |  |  |  |  |  |  |  |  |  | 
2 | CC(=O)Nc1ccc(C(=O)Nc2ccccc2N)cc1 [Tacedinaline] |  |  |  |  |  |  |  |  |  |  |  | 0 | 0 | 0 | 0 | 0 | 0 | 0 | 0 | 0 | 0 | 0 | 0 | 0 | 
3 | CCC1=C[C@@H]2CN(C1)Cc1c([nH]c3ccccc13)[C@@](C(=O)OC)(c1cc3c(cc1OC)N(C)[C@H]1[C@@](O)(C(=O)OC)[C@H](OC(C)=O)[C@]4(CC)C=CCN5CC[C@]31[C@@H]54)C2 [Vinorelbine] (10000 nM) | 30.3 | 11.5 | 44.2 | 9.67 | 38.9 | 29.4 | 54 | 40.4 | 40.1 | 53.8 | 14.8 |  |  |  |  |  |  |  |  |  |  |  |  |  | 106
4 | COc1cc([C@@H]2c3cc4c(cc3[C@@H](O[C@@H]3O[C@@H]5CO[C@@H](C)O[C@H]5[C@H](O)[C@H]3O)[C@H]3COC(=O)[C@H]23)OCO4)cc(OC)c1O [Etoposide] (10000 nM) | 31.7 | 18.4 | 63.1 | 4.57 | 62.6 | 61.4 | 73.7 | 19.6 | 70.8 | 142 | 15.8 |  |  |  |  |  |  |  |  |  |  |  |  |  | 98.3
